Earlier results in patent US20070224216A1, “Methods and Compositions Related to Antiviral Therapy Using Algae and Cyanobacteria” (priority 2004, published 2007).

Substance: calcium spirulan
- toxicity to uninfected cells (uninfected cells): No toxicity

Substance: heparin [oral heparins]
- plasma concentrations after oral administration (rat, in vivo, po): less than 1%
- thrombosis in the rat jugular vein model (rats, oral): reduction of thrombosis
